Reference: patent publication US6489358B2, “Pharmaceutical compositions containing mupirocin” (Agis Industries (1983) Ltd., priority 2000, dated 2002)

Legend:
[1] = Stability of 2% solution on heating (Δ % impurities); type: physicochemical
Experimental: The stability of Mupirocin Calcium amorphous in various acceptable pharmaceutical solvents was tested by heating a 2% solution to 80° C. for 24 hours or by heating it to 40° for 1 month. Bactroban cream was used as a reference.

[2] = Solubility of 2% solutions (calculated as free acid) in pharmaceutically acceptable hydrophilic solvents; type: physicochemical
Description: The following table presents the solubility of mupirocin calcium amorphous, compared to the solubility of the crystalline form, in various pharmaceutically acceptable hydrophilic solvents. We prepared 2% solutions (calculated as free acid), similar to the commercially available products.

[3] = from U.S Pat. No. 4,916,155; cited from earlier work
[4] = 2% solution in Propylene Glycol
[5] = 2% solution (calculated as free acid) in Glycerine
[6] = 2% solution (calculated as free acid) in Hexylene glycol

Structure (SMILES)	Δ % impurities (after heating for 1 month at 40° C.) ([1]; 2% solution in Glycerine) [%]	Δ % impurities (after heating for 24 h at 80° C.) ([1]; 2% solution in Glycerine) [%]	Δ % impurities (after heating for 1 month at 40° C.) ([1]; 2% solution in Hexylene Glycol) [%]	Δ % impurities (after heating for 24 h at 80° C.) ([1]; 2% solution in Hexylene Glycol) [%]	Δ % impurities (after heating for 1 month at 40° C.) [1, 4] [%]	Δ % impurities (after heating for 24 h at 80° C.) [1, 4] [%]	Δ % impurities (after heating for 1 month at 40° C.) ([1]; 2% solution in Water) [%]	Δ % impurities (after heating for 24 h at 80° C.) ([1]; 2% solution in Water) [%]	Stability of the solution ([1]; solution in hexylene glycol)	Solubility (After heating for 30 min. at 70° C.) [2, 5]	Solubility (at room temperature) [2, 5]	Solubility (at room temperature) [2, 6]	Solubility in hydrophilic solvents compared with the crystalline form ([2]; hydrophilic solvents)	Solubility in water [3]	Solubility (After heating for 30 min. at 70° C.) ([2]; 2% solution (calculated as free acid) in Glycerine, calcium dihydrate)	Solubility (After heating for 30 min. at 70° C.) [2, 6]	Solubility (at room temperature) ([2]; 2% solution (calculated as free acid) in Hexylene glycol, calcium dihydrate)	Solubility (at room temperature) ([2]; 2% solution (calculated as free acid) in Propylene glycol, calcium dihydrate)	Solubility (After heating for 30 min. at 70° C.) ([2]; 2% solution (calculated as free acid) in Water)	Solubility (at room temperature) ([2]; 2% solution (calculated as free acid) in Water, calcium dihydrate)
C/C(=C\C(=O)OCCCCCCCCC(=O)[O-])C[C@@H]1OC[C@H](C[C@@H]2O[C@H]2[C@@H](C)[C@H](C)O)[C@@H](O)[C@H]1O.C/C(=C\C(=O)OCCCCCCCCC(=O)[O-])C[C@@H]1OC[C@H](C[C@@H]2O[C@H]2[C@@H](C)[C@H](C)O)[C@@H](O)[C@H]1O.O.O.[Ca+2] [Mupirocin Ca amorphous, amorphous calcium mupirocin]	29.2	29.4	1.5	2	7.5	8.7	36.7	36.4	good stability	Soluble	Not soluble	Soluble	much more soluble in hydrophilic solvents	–	–	–	–	–	–	–
C/C(=C\C(=O)OCCCCCCCCC(=O)[O-])C[C@@H]1OC[C@H](C[C@@H]2O[C@H]2[C@@H](C)[C@H](C)O)[C@@H](O)[C@H]1O.C/C(=C\C(=O)OCCCCCCCCC(=O)[O-])C[C@@H]1OC[C@H](C[C@@H]2O[C@H]2[C@@H](C)[C@H](C)O)[C@@H](O)[C@H]1O.O.O.[Ca+2] [Mupirocin Ca crystalline, crystalline Mupirocin calcium dihydrate]	–	–	–	–	–	–	–	–	–	–	–	–	–	poor solubility in water	Partially soluble	Not soluble	Not soluble	Soluble	Not soluble	Not soluble
